Measured values from PubChem BioAssay (NCI).
“And” between values parts separate entries of the source, which are not always exact repeats. Equal values may be shown once.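 The compound was tested at five concentrations on cells cultured in 96-well plates, with a 48-hour exposure period. GI50 is the concentration that inhibits growth by half. At the TGI there is no net growth.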 Where a SMILES comes first, the peptide text is derived from it.

Key:
Assay in all cases: NCI anticancer screen, dose series, 48 h
A498 renal = tested on: A498 renal
HT29 colon = tested on: HT29 colon
IGROV1 ovarian = tested on: IGROV1 ovarian
NCI-H522 lung = tested on: NCI-H522 lung
NCI/ADR-RES ovarian = tested on: NCI/ADR-RES ovarian
OVCAR-5 ovarian = tested on: OVCAR-5 ovarian
OVCAR-8 ovarian = tested on: OVCAR-8 ovarian
SR leukemia = tested on: SR leukemia
U251 CNS = tested on: U251 CNS
SNB-75 CNS = tested on: SNB-75 CNS

CCOC(=O)Oc1ccc2c(c1)c(=O)c1c(NCCCN(CC)CC)ccc3nnn2c31
TGI (A498 renal): 23.2 µM | TGI (HT29 colon): 15.9 µM | TGI (IGROV1 ovarian): 34.2 µM | TGI (NCI-H522 lung): 19.7 µM | TGI (NCI/ADR-RES ovarian): 28.1 µM | TGI (OVCAR-5 ovarian): 33.5 µM | TGI (OVCAR-8 ovarian): 19.5 µM | TGI (SR leukemia): > 53 µM | TGI (U251 CNS): 23.6 µM

COc1cccc(C(=O)N[C@@H]2[C@H](O)[C@@H](CO)O[C@H]2n2cnc3c(N)ncnc32)c1
TGI (A498 renal): > 100 µM | TGI (HT29 colon): > 100 µM | TGI (IGROV1 ovarian): > 100 µM | TGI (NCI-H522 lung): > 100 µM | TGI (NCI/ADR-RES ovarian): > 100 µM | TGI (OVCAR-5 ovarian): > 100 µM | TGI (OVCAR-8 ovarian): > 100 µM | TGI (SNB-75 CNS): > 100 µM | TGI (SR leukemia): > 100 µM | TGI (U251 CNS): > 100 µM

COc1ccccc1N1C(=O)CC(=O)N(C(=O)CCCCCCCCC(=O)N2C(=O)CC(=O)N(c3ccccc3OC)C2=S)C1=S
TGI (A498 renal): > 100 µM | TGI (HT29 colon): > 100 µM | TGI (NCI-H522 lung): > 100 µM | TGI (NCI/ADR-RES ovarian): > 100 µM | TGI (OVCAR-5 ovarian): > 100 µM | TGI (OVCAR-8 ovarian): > 100 µM | TGI (SNB-75 CNS): > 100 µM | TGI (SR leukemia): > 100 µM | TGI (U251 CNS): > 100 µM

Cc1cc(C#N)c(Nc2ccccc2[N+](=O)[O-])s1
TGI (A498 renal): > 100 µM | TGI (IGROV1 ovarian): > 100 µM | TGI (NCI-H522 lung): 57.6 µM | TGI (NCI/ADR-RES ovarian): 53 µM | TGI (OVCAR-5 ovarian): 62.9 µM | TGI (OVCAR-8 ovarian): > 100 µM | TGI (SNB-75 CNS): > 100 µM | TGI (SR leukemia): > 100 µM | TGI (U251 CNS): 57.6 µM

CCSC12CC3c4cccc5c4C(CN5C(=O)c4ccccc4)CC3(O1)N(C)C2=O (configuration not stated)
TGI (A498 renal): > 100 µM | TGI (HT29 colon): > 100 µM | TGI (IGROV1 ovarian): > 100 µM | TGI (NCI-H522 lung): 64.7 µM | TGI (NCI/ADR-RES ovarian): > 100 µM | TGI (OVCAR-5 ovarian): > 100 µM | TGI (OVCAR-8 ovarian): > 100 µM | TGI (SNB-75 CNS): > 100 µM | TGI (SR leukemia): 77.6 µM | TGI (U251 CNS): > 100 µM

CCN(CC)CCC(=O)O[C@H]1CC[C@H](CC(C)[C@H]2CC(=O)C(C)C=C(C)[C@H](OC(=O)CCN(CC)CC)C(OC)C(=O)[C@@H](C)CC(C)/C=C/C=C/C=C(C)C(OC)CC3CC[C@H](C)[C@](O)(O3)C(=O)C(=O)N3CCCCC3C(=O)O2)CC1OC (some centres not stated)
TGI (A498 renal): 1.11 µM | GI50 (HT29 colon): 1.07 µM | TGI (HT29 colon): 2.57 µM and 2.44 µM | GI50 (IGROV1 ovarian): 0.00595 µM | TGI (IGROV1 ovarian): 1.81 µM and 1.74 µM | GI50 (NCI-H522 lung): 0.017 µM | TGI (NCI-H522 lung): 1.98 µM and 1.89 µM | TGI (NCI/ADR-RES ovarian): 8.13 µM and 6.58 µM | GI50 (OVCAR-5 ovarian): 1.63 µM | TGI (OVCAR-5 ovarian): 8.16 µM and 7.73 µM | GI50 (OVCAR-8 ovarian): 0.00624 µM | TGI (OVCAR-8 ovarian): 3.49 µM and 2.21 µM | GI50 (SNB-75 CNS): 0.1 µM | TGI (SNB-75 CNS): 1.77 µM and 0.55 µM | TGI (SR leukemia): 3.46 µM and 0.618 µM | GI50 (U251 CNS): 1.13 µM | TGI (U251 CNS): 2.34 µM and 1.9 µM

CCOP(=O)(OCC)C(=C1C=C(C(C)(C)C)C(=O)C(C(C)(C)C)=C1)P(=O)(OCC)OCC
TGI (A498 renal): > 10 µM | TGI (HT29 colon): > 10 µM | TGI (IGROV1 ovarian): > 10 µM | TGI (NCI-H522 lung): 4.29 µM | TGI (NCI/ADR-RES ovarian): > 10 µM | TGI (OVCAR-5 ovarian): > 10 µM | TGI (OVCAR-8 ovarian): > 10 µM | TGI (SNB-75 CNS): > 10 µM | TGI (SR leukemia): > 10 µM | TGI (U251 CNS): > 10 µM

COc1ccc(N2C(=O)C3c4[nH]c5ccc(OCc6ccccc6)cc5c4C4CCC(C(C)C)CC4C3C2=O)cc1 (configuration not stated)
TGI (A498 renal): 25.4 µM | TGI (HT29 colon): > 100 µM | TGI (IGROV1 ovarian): > 80.6 µM | TGI (NCI-H522 lung): 73.4 µM | TGI (NCI/ADR-RES ovarian): > 100 µM | TGI (OVCAR-5 ovarian): > 100 µM | TGI (OVCAR-8 ovarian): > 100 µM | TGI (SNB-75 CNS): 10.4 µM | TGI (SR leukemia): 22.9 µM | TGI (U251 CNS): > 73.1 µM

COc1nc(C)nc2c1ncn2Cc1ccccc1
TGI (A498 renal): > 100 µM | TGI (HT29 colon): > 100 µM | TGI (IGROV1 ovarian): > 100 µM | TGI (NCI-H522 lung): > 100 µM | TGI (NCI/ADR-RES ovarian): > 100 µM | TGI (OVCAR-5 ovarian): > 100 µM | TGI (OVCAR-8 ovarian): > 100 µM | TGI (SNB-75 CNS): > 100 µM | TGI (SR leukemia): > 100 µM | TGI (U251 CNS): > 100 µM

Cc1ccc(N2C(=O)C(=O)N(/N=C3\C(=O)Nc4ccccc43)C2=S)cc1
TGI (A498 renal): > 100 µM | TGI (HT29 colon): > 100 µM | TGI (IGROV1 ovarian): > 100 µM | TGI (NCI-H522 lung): > 100 µM | TGI (NCI/ADR-RES ovarian): > 100 µM | TGI (OVCAR-5 ovarian): > 100 µM | TGI (OVCAR-8 ovarian): > 100 µM | TGI (SNB-75 CNS): > 100 µM | TGI (SR leukemia): > 100 µM | TGI (U251 CNS): > 100 µM

N#CCN(Cc1ccccc1)[C@@H]1CCC[C@]1(O)C#Cc1ccc2c(c1)OCO2
TGI (A498 renal): 35.1 µM | TGI (HT29 colon): 36.1 µM | TGI (IGROV1 ovarian): 39.7 µM | TGI (NCI-H522 lung): 33.7 µM | TGI (NCI/ADR-RES ovarian): 51.8 µM | TGI (OVCAR-5 ovarian): 33.5 µM | TGI (OVCAR-8 ovarian): 32.2 µM | TGI (SNB-75 CNS): > 100 µM | TGI (SR leukemia): 40.9 µM | TGI (U251 CNS): 33.9 µM

CC(=O)NC(CO)C(=O)NC(Cc1ccc(O)cc1)C(=O)NCC(N)=O (stereo not drawn) (Ac-Ser-Tyr-Gly-NH2; configuration not given here)
TGI (A498 renal): > 100 µM | TGI (HT29 colon): > 100 µM | TGI (IGROV1 ovarian): > 100 µM | TGI (NCI-H522 lung): > 100 µM | TGI (NCI/ADR-RES ovarian): > 100 µM | TGI (OVCAR-5 ovarian): > 100 µM | TGI (OVCAR-8 ovarian): > 100 µM | TGI (SNB-75 CNS): > 100 µM | TGI (SR leukemia): > 100 µM | TGI (U251 CNS): > 100 µM

CC(=O)Nc1nnc(S(=O)(=O)NC(=S)Nc2ccc(Cl)cc2)s1
TGI (A498 renal): > 100 µM | TGI (HT29 colon): > 100 µM | TGI (IGROV1 ovarian): > 100 µM | TGI (NCI-H522 lung): > 100 µM | TGI (NCI/ADR-RES ovarian): > 100 µM | TGI (OVCAR-5 ovarian): > 100 µM | TGI (OVCAR-8 ovarian): > 100 µM | TGI (SNB-75 CNS): > 100 µM | TGI (SR leukemia): > 100 µM | TGI (U251 CNS): > 100 µM

COC(=O)C1=NN2c3ccccc3CN([C@@H](C)c3ccccc3)C(=O)[C@H]2[C@@H]1C
TGI (A498 renal): > 100 µM | TGI (HT29 colon): > 100 µM | TGI (NCI-H522 lung): > 100 µM | TGI (NCI/ADR-RES ovarian): > 100 µM | TGI (OVCAR-5 ovarian): > 100 µM | TGI (OVCAR-8 ovarian): > 100 µM | TGI (SNB-75 CNS): 95 µM | TGI (SR leukemia): > 100 µM | TGI (U251 CNS): > 100 µM

Cc1ccc(-n2cc(-c3ccc(Cl)cc3)c3c2N=CN2NC(c4cccs4)=NC32)cc1 (configuration not stated)
TGI (A498 renal): 35.9 µM | TGI (HT29 colon): > 100 µM | TGI (IGROV1 ovarian): 34.7 µM | TGI (NCI-H522 lung): > 100 µM | TGI (NCI/ADR-RES ovarian): 40.9 µM | TGI (OVCAR-5 ovarian): 51 µM | TGI (OVCAR-8 ovarian): 21 µM | TGI (SNB-75 CNS): 23.4 µM | TGI (SR leukemia): > 100 µM | TGI (U251 CNS): 18.1 µM

NCCC1([N+](=O)[O-])CCNCC1
TGI (A498 renal): > 100 µM | TGI (HT29 colon): > 100 µM | TGI (IGROV1 ovarian): > 100 µM | TGI (NCI-H522 lung): > 100 µM | TGI (NCI/ADR-RES ovarian): > 100 µM | TGI (OVCAR-5 ovarian): > 100 µM | TGI (OVCAR-8 ovarian): > 100 µM | TGI (SNB-75 CNS): > 100 µM | TGI (SR leukemia): > 100 µM | TGI (U251 CNS): > 100 µM

C=C(CC)C[C@@H]1C[C@]2(C(=O)OC)c3[nH]c4ccccc4c3CCN2C1=O
TGI (A498 renal): 41.1 µM | TGI (HT29 colon): 42 µM | TGI (IGROV1 ovarian): 58 µM | TGI (NCI-H522 lung): 36.7 µM | TGI (NCI/ADR-RES ovarian): 51.1 µM | TGI (OVCAR-5 ovarian): 56 µM | TGI (OVCAR-8 ovarian): > 100 µM | TGI (SNB-75 CNS): 66.2 µM | TGI (SR leukemia): > 100 µM | TGI (U251 CNS): 40.8 µM

CN1CCCC(C(=O)OCC(=O)C2(O)CCC3C4CCC5=CC(=O)CCC5(C)C4C(O)CC32C)C1 (configuration not stated)
TGI (A498 renal): 31.6 µM | TGI (HT29 colon): 27 µM | TGI (IGROV1 ovarian): > 60.1 µM | TGI (NCI-H522 lung): 45.3 µM | TGI (NCI/ADR-RES ovarian): 55.3 µM | TGI (OVCAR-5 ovarian): 52.2 µM | TGI (OVCAR-8 ovarian): 35.3 µM | TGI (SNB-75 CNS): 17.5 µM | TGI (SR leukemia): 4.47 µM | TGI (U251 CNS): 16 µM

CC(=O)Oc1cc(S(=O)(=O)Nc2n[nH]c(N)n2)c(S)cc1Cl
TGI (A498 renal): > 100 µM | TGI (HT29 colon): > 100 µM | TGI (IGROV1 ovarian): > 100 µM | TGI (NCI-H522 lung): > 100 µM | TGI (NCI/ADR-RES ovarian): > 100 µM | TGI (OVCAR-5 ovarian): > 100 µM | TGI (OVCAR-8 ovarian): > 100 µM | TGI (SR leukemia): > 100 µM | TGI (U251 CNS): > 100 µM
